Measurements: patent US11147792B2, “Inhibitors of microbially induced amyloid” (Axial Therapeutics, Inc, priority 2017, dated 2021)
Like-named read-outs stand apart in the source and are kept apart here.

Key:
human α-synuclein = target: T1, human α-synuclein (Homo sapiens, UniProt P37840); experiment: In vitro Thioflavin T assay of α-synuclein aggregation; type: biochemical; settings: compounds at 50 μM, 50 μM α-synuclein, ThT fluorescence at 40 hours
T1 construct: made in house; host or cells: E. coli
Description: In Vitro Thioflavin T Assay to Determine the Effects of Compounds on α-Synuclein Aggregation.
The ammonium sulfate pellet was washed with an equal volume of 100 mM ammonium acetate in ethanol, pelleted via centrifugation, washed twice with ethanol, dried overnight, resuspended in 10 mM Tris pH 7.4, and passed through a 50 kDa cut-off column. The assay was conducted in 96-well black microplates with a single 2 mm bead in each well, 40 μM ThioflavinT, 1% DMSO, 50 μM α-synuclein, 100 mM sodium chloride, 9.3 mM potassium phosphate pH 7.3, 4.6 mM Tris pH 7.4 (added as the solvent for α-synuclein or independently for controls lacking α-synuclein), and compounds at 1 μM or 50 μM. […] Readings were performed hourly for up to 73 hours. The effect of compounds on α-synuclein aggregation in the assay was determined with data from 40 hours, following the plateau of the fluorescent signal in the untreated (no compound) control wells containing α-synuclein. Fluorescence values for each compound with α-synuclein were first adjusted by subtracting the average fluorescence of the compound in the absence of α-synuclein.

E. coli CsgA = target: T2, E. coli CsgA (Escherichia coli, UniProt P28307); experiment: In vitro ThioflavinT assay of CsgA aggregation; type: biochemical; settings: CsgA at 20 μM, ThT fluorescence at 18 hours
T2 construct: made in house; host or cells: E. coli NEB 3016 slyD::kan, pET11d
Description: In Vitro ThioflavinT Assay to Determine Effects of Compounds on CsgA Aggregation.
To assess the effects of compounds on aggregation of E. coli CsgA, a cell-free assay was performed using purified CsgA and Thioflavin T. In the assay, histidine-tagged CsgA was over-expressed in E. coli NEB 3016 slyD::kan cells harboring a pET11d vector containing csgA with the sequence for 6 histidine residues added to the C-terminus and without the Sec signal (amino acid 1-22) sequence. To induce over-expression of CsgA, 0.5 mM isopropyl β-D-1-thiogalactopyranoside (“IPTG”) was added to cultures with an optical density at 600 nm (OD600) of 0.8-1, and induced cells were cultured at 37° C. for 1 hour prior to harvest via centrifugation. Cells were lysed under denaturing conditions with 8 M guanidine hydrochloride in 50 mM potassium phosphate buffer pH 7.3, and CsgA was purified via immobilized-metal affinity chromatography by batch purification with Nickel-NTA agarose and a combination of low pressure and gravity flow through a disposable polypropylene column, including washes under low pressure applied manually via application of a syringe plunger to the column with 50 mM potassium phosphate buffer pH 7.3 followed by 12.5 mM imidazole in 50 mM potassium phosphate buffer pH 7.3, and elution by gravity flow with 125 mM imidazole in 50 mM potassium phosphate buffer pH 7.3. Buffers with imidazole were freshly prepared prior to the protein purification. Purified CsgA was passed through a 30 kDa molecular weight cut-off filter and passed through a desalting column. All steps of the CsgA purification in the absence of guanidine hydrochloride were conducted in rapid succession with as little delay as possible. The assay was conducted in 96-well black microplates with 40 μM ThioflavinT, 1% DMSO, CsgA at 20 μM, and compounds at 20 μM. Plates were incubated at 25° C. in a Tecan Nano F200 plate reader with excitation at 438 nm using a 439 nm filter with a bandwidth of 8 nm, and emission at 495 nm with a 490 nm filter with a bandwidth of 10 nm. During the assay, plates were shaken initially for 5 seconds and subsequently for 3 seconds prior to fluorescent readings. Readings were performed every 20 minutes for up to 24 hours. The effect of compounds on CsgA aggregation in the assay was determined with data from 18 hours, following the plateau of the fluorescent signal in the untreated (no compound) control wells containing CsgA. Fluorescence values for each compound with CsgA were first adjusted by subtracting the average fluorescence of the compound in the absence of CsgA. These adjusted values were normalized by dividing them by the average fluorescence in the no-compound (i.e., untreated) control wells containing CsgA […], and the average normalized fluorescence with the compound was expressed as a percentage of the average fluorescence observed in untreated controls.

T2 sequence (P28307 23-151): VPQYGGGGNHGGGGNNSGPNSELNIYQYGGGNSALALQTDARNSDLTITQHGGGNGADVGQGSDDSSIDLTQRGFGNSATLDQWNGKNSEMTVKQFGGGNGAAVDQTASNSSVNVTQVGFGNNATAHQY

In the case of O=C(O[C@@H]1Cc2c(O)cc(O)cc2O[C@@H]1c1cc(O)c(O)c(O)c1)c1cc(O)c(O)c(O)c1 [EGCG, epigallocatechin gallate], the inhibition at 50 µM (human α-synuclein; read-out: Inhibition of Aggregation αSyn) is reported as 99%, the inhibition at 50 µM (human α-synuclein; read-out: Inhibition of Aggregation αSyn (compound activity range)) is reported as > 60% and the inhibition at 20 µM (E. coli CsgA; read-out: Inhibition of Aggregation CsgA (compound activity range), compounds at 20 μM) is reported as 30 to 60%. The inhibition at 20 µM (E. coli CsgA; read-out: Inhibition of Aggregation CsgA, compounds at 20 μM) was 56%.
